Laboratory results: patent US20080009485A1, “Methods for the use of inhibitors of cytosolic phospholipase A2 in the treatment of thrombosis” (Wyeth, priority 2006, published 2008)

Columns and labels:
[1] = target: T1, cPLA2 (Homo sapiens, UniProt P47712); assay: Coumarin assay (hydrolysis of 7-hydroxycoumarinyl 6-heptenoate); format: biochemical; conditions: 60 μM 7-hydroxycoumarinyl 6-heptenoate, 4 μg cPLA2, pH 7.5
T1 sequence (P47712 1-749): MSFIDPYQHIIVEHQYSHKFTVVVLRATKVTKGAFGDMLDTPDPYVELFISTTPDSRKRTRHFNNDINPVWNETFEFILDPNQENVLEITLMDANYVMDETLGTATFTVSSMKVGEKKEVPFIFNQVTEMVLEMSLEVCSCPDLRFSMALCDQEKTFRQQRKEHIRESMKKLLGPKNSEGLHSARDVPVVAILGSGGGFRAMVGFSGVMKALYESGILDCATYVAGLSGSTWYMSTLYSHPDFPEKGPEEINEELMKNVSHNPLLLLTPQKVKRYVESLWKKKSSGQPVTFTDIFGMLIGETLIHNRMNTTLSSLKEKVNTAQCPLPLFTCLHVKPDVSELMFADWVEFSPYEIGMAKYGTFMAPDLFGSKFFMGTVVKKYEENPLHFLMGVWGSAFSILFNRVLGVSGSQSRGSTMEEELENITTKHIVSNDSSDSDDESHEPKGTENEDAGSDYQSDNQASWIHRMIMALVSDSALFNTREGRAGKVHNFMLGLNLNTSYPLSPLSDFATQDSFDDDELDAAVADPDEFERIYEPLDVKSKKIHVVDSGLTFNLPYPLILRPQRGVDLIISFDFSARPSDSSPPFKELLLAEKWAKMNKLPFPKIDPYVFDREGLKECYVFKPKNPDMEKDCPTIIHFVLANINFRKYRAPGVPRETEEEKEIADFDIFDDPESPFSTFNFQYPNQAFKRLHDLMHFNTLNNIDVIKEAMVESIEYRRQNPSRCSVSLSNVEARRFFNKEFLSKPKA
Experimental: Inhibitors were mixed with 200 μL assay buffer (80 mM Hepes, pH 7.5, 1 mM EDTA) containing 60 μM 7-hydroxycoumarinyl 6-heptenoate. The reaction was initiated by adding 4 μg cPLA2 in 50 μL assay buffer. Hydrolysis of the 7-hydroxycounarimyl 6-heptenoate ester was monitored in a fluorometer by exciting at 360 nm and monitoring emission at 460 nm. Enzyme activity is proportional to the increase in emission at 460 nm per minute. In the presence of a cPLA2 inhibitor, the rate of increase is less.

[2] = Exposure after chow dosing in mice; conditions: mouse, in vivo, oral; ApoE knockout mice, chow diet supplemented at 3.3 mg/g chow
[3] = system: platelet aggregation; assay: PFA-100 ex vivo platelet aggregation of chow dosed mice; format: in vivo; conditions: ApoE knockout mice, 3.3 mg/g chow for 2 days; control 142±16, p<0.02
[4] = system: Human platelet aggregation; assay: Platelet Function Analyzer (PFA-100) study, whole human blood in vitro; format: cell-based; conditions: for prolongation of PFA-100 closure time: Collagen/Epinephrine cartridges, 10 minutes incubation, DMSO vehicle 125±13.9 seconds
Experimental: Platelet Function Analyzer (PFA-100®) Study
Human platelet aggregation was also studied using the platelet function analyzer (PFA-100®). […] Tubes were inverted 5 times and the blood was transferred to 15 ml polypropylene conical tubes. […] The manufacturers protocol was followed for the PFA-100 using Collagen/Epinephrine cartridges (0.5% DMSO alone in whole blood gave closure times of 125±13.9 seconds). Maximum closure time is 300 seconds, as set by the manufacturer. […] The blood from two mice was pooled to obtain enough blood (800 μl minimum) to conduct each assay.

| Compound | IC50 [1] | also measured |
| --- | --- | --- |
| 2-{2-[1-Benzhydryl-5-chloro-2-(2-phenylmethanesulfonyl-amino-ethyl)-1H-indol-3-yl]-ethoxy}-benzoic acid [Example 283] | 500 nM | – |
| 4-[2-(1-benzhydryl-5-chloro-2-{2-[({2-[(3R,5S)-3,5-dimethylmorpholin-4-yl]ethyl}sulfonyl)amino]ethyl}-1H-indol-3-yl)ethoxy]benzoic acid [Example 250] | 2100 nM | – |
| 4-{2-[1-benzhydryl-5-chloro-2-(2-{[(2,6-dimethylbenzyl)sulfonyl]amino}ethyl)-1H-indol-3-yl]ethoxy}benzoic acid [Example 279] | 160 nM | – |
| O=C(O)c1ccc(CCCc2c(CCNS(=O)(=O)Cc3ccc(Cl)c(Cl)c3)n(C(c3ccccc3)c3ccccc3)c3ccc(Cl)cc23)cc1 [Example 44, 4-{3-[1-benzhydryl-5-chloro-2-(2-{[(3,4-dichlorobenzyl)sulfonyl]amino}ethyl)-1H-indol-3-yl]propyl}benzoic acid] | – | Cmax [2]: ~500 ng/mL; closure time of the PFA-100, ex vivo [3]: 194 ± 49 s |
| Cc1cccc(C)c1CS(=O)(=O)NCCc1c(CCCc2ccc(C(=O)O)cc2)c2cc(Cl)ccc2n1C(c1ccccc1)c1ccccc1 [Example 52, 4-(3-[1-benzhydryl-5-chloro-2-(2-{[(2,6-dimethylbenzyl)-sulfonyl]amino}ethyl)-1H-indol-3-yl]propyl}benzoic acid] | – | prolongation of PFA-100 closure time [4]: able to prolong the closure time to varying extents; relative potency in PFA-100 closure time ([4]; compared: Examples 44, 52 and aspirin): most potent compound |
| O=C(O)c1ccc(OCCc2c(CCNS(=O)(=O)Cc3c(Cl)cccc3Cl)n(C(c3ccccc3)c3ccccc3)c3ccc(Cl)cc23)cc1 [Example 73, 4-{2-[1-Benzhydryl-5-chloro-2-(2-{[(2-dichlorobenzyl)sulfonyl]amino}ethyl)-1H-indol-3-yl]ethoxy}benzoic acid] | 300 nM | – |
| O=C(O)c1ccc(OCCc2c(CCNS(=O)(=O)Cc3cnc(Cl)c(Cl)c3)n(C(c3ccccc3)c3ccccc3)c3ccc(Cl)cc23)cc1 [Example 76] | 400 nM | – |
| O=C(O)CCc1ccc(S(=O)(=O)CCc2c(CCNS(=O)(=O)Cc3ccccc3Cl)n(C(c3ccccc3)c3ccccc3)c3ccc(Cl)cc23)cc1 [Example 129, 3-[4-({2-[1-Benzhydryl-5-chloro-2-(2-{[(2-chloro-benzyl)sulfonyl]amino}ethyl)-1H-indol-3-yl]ethyl}sulfonyl)phenyl]propanoic acid] | 130 nM | – |
| NCc1ccccc1S(=O)(=O)NCCc1c(CCCc2ccc(C(=O)O)cc2)c2cc(Cl)ccc2n1C(c1ccccc1)c1ccccc1 [Example 156, 4-(3-{2-[2-({[2-(aminomethyl)phenyl]sulfonyl}amino)ethyl]-1-benzhydryl-5-chloro-1H-indol-3-yl}propyl)benzoic acid] | 160 nM | – |
| O=C(O)c1ccc(OCCc2c(CCNS(=O)(=O)CCN3CC4CC3CO4)n(C(c3ccccc3)c3ccccc3)c3ccc(Cl)cc23)cc1 (stereo not shown) [Example 251, 4-(2-{1-benzhydryl-5-chloro-2-[2-({[2-(2-oxa-5-azabicyclo[2.2.1]hept-5-yl)ethyl]sulfonyl}amino)ethyl]-1H-indol-3-yl}ethoxy)benzoic acid] | 1500 nM | – |
| O=C(O)c1ccc(OCCc2c(CCNS(=O)(=O)Cc3ccc(Cl)c(Cl)c3)n(C(c3ccccc3)c3ccccc3)c3ccc(Cl)cc23)cc1F [Example 296, 4-{2-[1-benzhydryl-5-chloro-2-(2-{[(3,4-dichlorobenzyl)sulfonyl]amino}ethyl)-1H-indol-3-yl]ethoxy}-2-fluorobenzoic acid] | – | melting point: 117 to 119 °C |
| O=C(O)c1ccc(OCCc2c(CCNS(=O)(=O)Cc3ccccc3Cl)n(C(c3ccccc3)c3ccccc3)c3ccc(Cl)cc23)cc1F [Example 297, 4-{2-[1-benzhydryl-5-chloro-2-(2-{[(2-chlorobenzyl)sulfonyl]amino}ethyl)-1H-indol-3-yl]ethoxy}-2-fluorobenzoic acid] | – | melting point: 132 to 135 °C |
| CC(C)(Cc1ccc(S(=O)(=O)CCc2c(CCNS(=O)(=O)Cc3ccc(Cl)c(Cl)c3)n(C(c3ccccc3)c3ccccc3)c3ccc(Cl)cc23)cc1)C(=O)O [Example 298, 3-[4-({2-[1-benzhydryl-5-chloro-2-(2-{[(3,4-dichlorobenzyl)sulfonyl]amino}ethyl)-1H-indol-3-yl]ethyl}sulfonyl)phenyl]-2,2-dimethylpropanoic acid] | – | melting point: 207 to 208 °C |
| CC(=O)Oc1ccccc1C(=O)O [aspirin, reference compound] | – | prolongation of PFA-100 closure time [4]: able to prolong the closure time to varying extents |
